Consider 12 compounds from US12703693B2, “Crystalline forms of N-{3-[(1S)-1-{[6-(3,4-dimethoxyphenyl)pyrazin-2-yl]amino}ethyl]phenyl}-5-methylpyridine-3-carboxamide and related products and methods” (GB002, INC., priority 2021, dated 2026).

Data set [1] is described as follows: Particle size distribution (PSD) of micronized / spray dried material. In kind it is physicochemical. The following applies: for Dv10 (μm) 1 / Dv50 (μm) 1 / Dv90 (μm) 1 / SPAN1 / Dv10 (μm) 2 / Dv50 (μm) 2 / Dv90 (μm) 2 / SPAN 2: wet polished (wet milled + spray dried) Compound 1 Form A; for Dv10 (μm) 1 / Dv50 (μm) 1 / Dv90 (μm) 1 / SPAN1: PSD set 1; for Dv10 (μm) 2 / Dv50 (μm) 2 / Dv90 (μm) 2 / SPAN 2: PSD set 2. An excerpt: Crystalline Compound 1 Form A was fed into a grinding chamber tangentially by vacuum created by the venturi system using pressurized nitrogen (venturi pressure, Pvent, above grind pressure, Pgrind). Compressed nitrogen was also used for the jet nozzles in the walls of the chamber. The feed flow rate was set and controlled automatically (by a gravimetric feeder) or manually. Once inside the milling chamber particles were accelerated by a series of perimeter jets, in a spiral movement. The compressed fluid issuing from the nozzles expands from Pgrind and imparts very high rotational speeds in the chamber. The micronizing effect occurs when the slower incoming particles and the faster particles in the spiral path collide. While centrifugal force retains the larger particles at the periphery of the milling chamber, the smaller particles exit with the exhaust gas from the center of the chamber. Five 20 g trials were performed in a 1.5″ jet mill, under varying feed rates (Ffeed,JM,) and pressures; the optimal conditions were used for a sixth larger scale 50 g trial.
Aqueous suspensions of crystalline Compound 1 Form A in water (5% w/w or 10% w/w) were processed via microfluidization with a HPH18 (M-110EH-30 Microfluidics Pilot) wet milling apparatus equipped with an auxiliary processing module (200 μm) and an interaction chamber (Z-shape, 100 μm). The unit was initiated at a given pressure for the first five cycles to perform a pre-milling of the suspension, using only the auxiliary processing module (200 μm). The interaction chamber (100 μm) was then introduced and the suspension processed at a defined pressure. The temperature was controlled, using a reactor jacket, and recorded. To address clogging of the micronization chambers (observed after ~25 cycles), the pressure was increased from 25 to 60 bar.
The material isolated from the first run 1A, was dived into three (1BI, 1BII and 1BIII); runs 2A and 3A were spray dried to produce samples 2B and 3B, respectively. […] Runs 2B and 3B were additionally characterized for specific surface area (SSA). See Table 27 (runs 1BI, 1BII and 1BIII) and Table 28 (runs 2B and 3B) for conditions and product characterization. […]
Two 250 g batches of crystalline Compound 1 Form A were each suspended in water (5 L) and wet polished in a wet milling HPH18 (M-110EH-30 Microfluidics Pilot) apparatus, equipped with an auxiliary processing module (200 μm) and an interaction chamber (Z-shape, 100 μm). The unit was initiated at 50 bar for the first five cycles to perform a pre-milling of the suspension, using only the auxiliary processing module (200 μm). The interaction chamber (100 μm) was then introduced and the suspension processed at 50 bar (increased to 60 or 70 bar if the system clogged). The temperature was maintained at 18-28° C. using a reactor jacket. The Reactor agitation speed was 280 RPM (batch 1) and 390 RPM (batch 2). The first batch was micronized for 25 cycles and particle size distribution analyzed after 5, 15 and 20 cycles; the second batch was micronized for […] and particle size distribution analyzed after 15, 20, 25 and 35 cycles.
Both batches were then spray dried (separately) using a Büchi spray dryer, using an open loop system. The unit was equipped with a two-fluid nozzle: cap and orifice diameters of 1.5 and 0.7 mm, respectively operated with nitrogen. The aspirator, blowing nitrogen, was set at 100% capacity (~40 kg/h). The suspension feed flow was set to 8 ml/min, high and the drying outlet temperature to 75±1° C. […] Total yield (both batches combined) was 267 g (53%).
Two 250 g batches (250 g and 238 g; 488 g total) of crystalline Compound 1 Form A coated with ~2% L-leucine were each suspended in water (5 L) and wet polished in a wet milling HPH18 (M-110EH-30 Microfluidics Pilot) apparatus, under the same process as described in the previous example. The first batch was micronized for 25 cycles and the second for 30 cycles. […]

Data set [2] can be described thus: Solubility in ethyl acetate and ethyl acetate+2% water (Crystal16 parallel crystallizer). In kind it is physicochemical. The procedure: The solubility of crystalline Forms A and B of Compound 1 in ethyl acetate was determined using a Crystal16® parallel crystallizer. Two heating rates were used, 1° C./min and 0.5° C./min. The suspensions were heated to 78° C. and cooled to 10° C. at 0.2° C./min and maintained for 2 h at 10° C. […] The suspensions were heated to 78° C. at 1° C./min, cooled to 10° C. at 0.2° C./min and maintained for 2 h at 10° C. FIG. 15 compares the resulting solubility curve with the pure ethyl acetate.

Data set [3] in a line: Product characterization of micronized / spray dried powder (XRPD, amorphous content, water content by KF, assay and related substances, SSA). It counts as physicochemical. The note with it: for KF: water content. An excerpt: The final spray dried product was characterized for assay and related substances, PSD, water content by KF and XRPD and the results shown in Table 43. The two sub-batches were blended to obtain the final product, with a total final yield was 137 g (68%), see Table 44.

Assay in data set [4]: as above
It counts as physicochemical.

Data set [5] can be described thus: Solubility in ethanol/water mixtures. The following applies: 22 °C, aqueous with cosolvent or surfactant or cyclodextrin, thermodynamic from solid.
Experimental: Phosphate Buffer contained NaH2PO4·H2O (0.345 g), sodium hydroxide aqueous solution (0.2M, 10.001 mL), sodium chloride (0.576 g) and water (qs ad 100.0 mL); • Ethanol/Water (30/70) contained Ethanol (30.0 g) and Water (70.0 g); • Ethanol/Water (40/60) contained Ethanol (40.0 g) and Water (60.0 g); • Ethanol/Water (50/50) contained Ethanol (50.0 g) and Water (50.0 g); and • Ethanol/Water (45/55) contained Ethanol (4.50 g) and Water (5.51 g).
The mark [6] stands for this setting: wet milled aqueous suspension of Compound 1 Form A, cycles/pressure: 1A 30/60 bar, 2A 45/50 bar, 3A 30/50 bar.
[7] abbreviates: Compound 1 alone, spray dried, individual batch analyses, cyclone 1.
Where [8] appears, read: Compound 1 alone, spray dried, individual batch analyses, cyclone 2.
Setting [9] is: final product, Compound 1 alone, wet polished and spray dried.
[10] abbreviates: jet milled crystalline Compound 1 Form A, label = jet mill run.
Setting [11] is: wet polished (wet milled + spray dried) Compound 1 Form A.
The mark [12] stands for this setting: Compound 1 alone after wet milling, BATCH 01: 20 cycles/P = 50 bar, BATCH 02: 35 cycles/P = 70 bar.

≈ marks a conversion by molar mass, not a printed value. Where “and” joins values, the source holds several entries; their conditions need not be identical. Equal values may be shown once. Some results are limits rather than exact numbers.

In data set [1] (setting [6]), `COc1ccc(-c2cncc(N[C@@H](C)c3cccc(NC(=O)c4cncc(C)c4)c3)n2)cc1OC` [Run 1A] had a Dv10 of 1.7 μm, a Dv50 of 3.2 μm and a Dv90 of 6 μm.

As for `COc1ccc(-c2cncc(N[C@@H](C)c3cccc(NC(=O)c4cncc(C)c4)c3)n2)cc1OC` [Form B, N-{3-[(1S)-1-{[6-(3,4-dimethoxyphenyl)pyrazin-2-yl]amino}ethyl]phenyl}-5-methylpyridine-3-carboxamide], the “solubility compared with the other crystalline form” value in data set [2] (ethyl acetate and ethyl acetate+2% water (both systems)) was “slightly less soluble”. Besides, the “solubility in ethyl acetate+2% water compared to pure ethyl acetate” value in data set [2] (presence of water (2%)) is recorded as “significantly more soluble”.

With `COc1ccc(-c2cncc(N[C@@H](C)c3cccc(NC(=O)c4cncc(C)c4)c3)n2)cc1OC` [Compound 1, N-{3-[(1S)-1-{[6-(3,4-dimethoxyphenyl)pyrazin-2-yl]amino}ethyl]phenyl}-5-methylpyridine-3-carboxamide], in data set [1] (setting [7]), the Dv10 is 0.1 μm and 0.3 μm; the Dv50 was 0.4 μm and 0.5 μm; the Dv90 is 3.1 μm and 1.5 μm; the SPAN is 7.2 and 2.1. Besides, in data set [1] (setting [8]), the Dv10 is 0.1 μm and 0.3 μm; the Dv50 was 0.4 μm and 0.5 μm; the Dv90 was 2.9 μm and 1.4 μm; the SPAN is 7.9 and 2.0. Moreover, in data set [1] (setting [9]), the Dv10 amounted to 0.3 μm, the Dv50 was 0.6 μm, the Dv90 was 3.3 μm and the SPAN is 4.7. Besides, in data set [1] (setting [10]), the Dv10 is 0.4 μm, the Dv50 was found to be 1.2 μm, the Dv90 is 2.8 μm and the SPAN worked out at 2.0. In data set [3] (setting [9]), the Bulk density is 0.10 g/mL, the “KF (water content)” value turned out to be 0.3 % w/w and the XRPD result is “Form A”. The “Amorphous content by DSC” value in data set [4] (setting [9]) was <10 % w/w. In data set [4] (setting [10]), the “Amorphous content by DSC” value is on record as 46 % w/w, the Assay was determined as 97.70 % LC, the Impurities turned out to be 1.10 % area and the “Water content KF” value amounted to 1.4 % w/w. The XRPD result in data set [4] (setting [10]) was “P + A”. In addition, in data set [4] (jet milled crystalline Compound 1 Form A, label = jet mill run, in m2/g (unit assumed)), the “Specific Surface Area by BET” value came out at 10.35.

In the case of `COc1ccc(-c2cncc(N[C@@H](C)c3cccc(NC(=O)c4cncc(C)c4)c3)n2)cc1OC` [Compound 1BIII], in data set [1], the “Dv10 (μm) 1” value is on record as 1.7 μm, the “Dv50 (μm) 1” value was 3.4 μm, the “Dv90 (μm) 1” value is on record as 6.6 μm and the SPAN1 was 1.4. Moreover, in data set [1], the “Dv10 (μm) 2” value is on record as 1.4 μm, the “Dv50 (μm) 2” value is reported as 3.1 μm, the “Dv90 (μm) 2” value turned out to be 6.6 μm and the “SPAN 2” value is 1.7. Moreover, in data set [3] (setting [11]), the KF was 0.1 % w/w, the Amorphous content is <10 % w/w, the Assay was determined as 99.40 % LC and the Impurities is recorded as 1.10 % area. Further, the XRPD entry in data set [3] (setting [11]) is “Crystalline”.

In data set [1] (setting [6]), `COc1ccc(-c2cncc(N[C@@H](C)c3cccc(NC(=O)c4cncc(C)c4)c3)n2)cc1OC` [Run 2A] gave a Dv10 of 1.3 μm, a Dv50 of 2.7 μm and a Dv90 of 4.8 μm.

Consider `COc1ccc(-c2cncc(N[C@@H](C)c3cccc(NC(=O)c4cncc(C)c4)c3)n2)cc1OC` [Compound 1BII], for which, in data set [1], the “Dv10 (μm) 1” value was found to be 1.7 μm, the “Dv50 (μm) 1” value was determined as 3.3 μm, the “Dv90 (μm) 1” value is reported as 6.3 μm and the SPAN1 amounted to 1.4. For the same compound, in data set [1], the “Dv10 (μm) 2” value was found to be 1.3 μm, the “Dv50 (μm) 2” value came out at 3 μm, the “Dv90 (μm) 2” value worked out at 6.1 μm and the “SPAN 2” value turned out to be 1.6. Also, in data set [3] (setting [11]), the KF worked out at 0.2 % w/w, the Amorphous content is listed as <10 % w/w, the Assay was found to be 102.0 % LC and the Impurities was found to be 0.9 % area. For the same compound, in data set [3] (setting [11]), the XRPD result is recorded as “Crystalline”.

`CC(C)C[C@H](N)C(=O)O` [L-Leucine]: in data set [5] (ethanol/water 30:70 (w:w)), the solubility came to 7360 µg/mL (≈ 56.1 mM), the solubility at 4 h is 7470 µg/mL (≈ 56.9 mM) and the solubility at 24 h worked out at 7260 µg/mL (≈ 55.3 mM). For the same compound, in data set [5] (ethanol/water 40:60 (w:w)), the solubility worked out at 5880 µg/mL (≈ 44.8 mM), the solubility at 4 h was 6040 µg/mL (≈ 46 mM) and the solubility at 24 h is 5710 µg/mL (≈ 43.5 mM). Moreover, in data set [5] (ethanol/water 50:50 (w:w)), the solubility amounted to 5070 µg/mL (≈ 38.7 mM), the solubility at 4 h is 4720 µg/mL (≈ 36 mM) and the solubility at 24 h worked out at 5410 µg/mL (≈ 41.2 mM).

Consider `COc1ccc(-c2cncc(N[C@@H](C)c3cccc(NC(=O)c4cncc(C)c4)c3)n2)cc1OC` [Run 3A], for which, in data set [1] (setting [6]), the Dv10 was determined as 0.1 μm, the Dv50 is listed as 1.0 μm and the Dv90 was determined as 3.5 μm.

In data set [1] (setting [12]), `COc1ccc(-c2cncc(N[C@@H](C)c3cccc(NC(=O)c4cncc(C)c4)c3)n2)cc1OC` [BATCH 01] registered a Dv10 of 0.2 μm, a Dv50 of 0.5 μm and a Dv90 of 1.7 μm.

In the case of `COc1ccc(-c2cncc(N[C@@H](C)c3cccc(NC(=O)c4cncc(C)c4)c3)n2)cc1OC` [Compound 3B-2F], in data set [1], the “Dv10 (μm) 2” value was determined as 1.3 μm, the “Dv50 (μm) 2” value is 3.7 μm, the “Dv90 (μm) 2” value was determined as 14.7 μm and the “SPAN 2” value is listed as 3.6.

For the compound `COc1ccc(-c2cncc(N[C@@H](C)c3cccc(NC(=O)c4cncc(C)c4)c3)n2)cc1OC` [Compound 1BI], in data set [1], the “Dv10 (μm) 1” value was 1.8 μm, the “Dv50 (μm) 1” value worked out at 3.5 μm, the “Dv90 (μm) 1” value worked out at 6.6 μm and the SPAN1 came out at 1.4. For the same compound, in data set [1], the “Dv10 (μm) 2” value was found to be 1.5 μm, the “Dv50 (μm) 2” value was determined as 3.3 μm, the “Dv90 (μm) 2” value stood at 6.7 μm and the “SPAN 2” value was 1.6. Also, in data set [3] (setting [11]), the KF is recorded as 0.5 % w/w, the Amorphous content is listed as <10 % w/w, the Assay stood at 98.9 % LC and the Impurities is 1.1 % area. The XRPD entry in data set [3] (setting [11]) is “Crystalline”.

Regarding `COc1ccc(-c2cncc(N[C@@H](C)c3cccc(NC(=O)c4cncc(C)c4)c3)n2)cc1OC` [BATCH 02], in data set [1] (setting [12]), the Dv10 amounted to 0.3 μm, the Dv50 came to 0.8 μm and the Dv90 worked out at 3.4 μm.

The solubility is how much of the substance goes into solution per volume.
